What was measured:
[1] = target: Mitogen-activated protein kinase kinase kinase 9 (Homo sapiens) (UniProt P80192); conditions: Compound concentration 1000.0 nM
[2] = target: Ephrin type-A receptor 4 (Homo sapiens) (UniProt P54764); conditions: Compound concentration 1000.0 nM
[3] = target: Macrophage-stimulating protein receptor (Homo sapiens) (UniProt Q04912); conditions: Compound concentration 1000.0 nM
[4] = target: Serine/threonine-protein kinase 33 (Homo sapiens) (UniProt Q9BYT3); conditions: Compound concentration 1000.0 nM
[5] = target: Muscarinic acetylcholine receptor M1 (Homo sapiens) (UniProt P11229); conditions: Compound concentration 10.0 uM
[6] = target: Serine/threonine-protein kinase 32C (Homo sapiens) (UniProt Q86UX6); conditions: Compound concentration 1000.0 nM
[7] = target: Mast/stem cell growth factor receptor Kit (Homo sapiens) (UniProt P10721); conditions: Compound concentration 1000.0 nM
Sequence of Mast/stem cell growth factor receptor Kit (Homo sapiens) (P10721 whole entry): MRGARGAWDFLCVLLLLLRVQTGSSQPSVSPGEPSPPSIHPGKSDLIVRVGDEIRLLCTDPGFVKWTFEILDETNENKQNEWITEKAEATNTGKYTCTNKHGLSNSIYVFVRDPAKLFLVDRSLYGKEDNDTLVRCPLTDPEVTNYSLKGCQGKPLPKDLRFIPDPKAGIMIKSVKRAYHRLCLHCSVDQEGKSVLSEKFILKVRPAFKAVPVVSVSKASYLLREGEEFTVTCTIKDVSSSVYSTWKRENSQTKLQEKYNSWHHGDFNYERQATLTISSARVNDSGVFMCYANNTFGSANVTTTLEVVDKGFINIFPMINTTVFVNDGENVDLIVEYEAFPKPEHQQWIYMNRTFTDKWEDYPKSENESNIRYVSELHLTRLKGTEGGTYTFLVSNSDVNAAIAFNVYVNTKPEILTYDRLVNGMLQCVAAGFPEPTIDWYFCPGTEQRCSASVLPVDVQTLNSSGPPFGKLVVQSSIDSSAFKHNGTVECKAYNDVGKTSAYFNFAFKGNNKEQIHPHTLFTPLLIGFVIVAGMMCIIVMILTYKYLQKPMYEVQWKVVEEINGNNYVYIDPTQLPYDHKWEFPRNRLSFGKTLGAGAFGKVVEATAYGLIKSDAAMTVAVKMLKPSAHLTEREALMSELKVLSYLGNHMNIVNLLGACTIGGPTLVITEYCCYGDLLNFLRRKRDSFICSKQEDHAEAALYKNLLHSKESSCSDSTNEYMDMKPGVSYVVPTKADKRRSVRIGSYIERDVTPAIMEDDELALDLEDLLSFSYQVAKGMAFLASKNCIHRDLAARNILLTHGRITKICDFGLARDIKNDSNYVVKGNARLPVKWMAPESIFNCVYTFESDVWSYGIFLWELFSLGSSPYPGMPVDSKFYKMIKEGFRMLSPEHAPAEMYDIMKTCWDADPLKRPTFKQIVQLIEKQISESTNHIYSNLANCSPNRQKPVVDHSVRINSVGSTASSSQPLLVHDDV

[8] = target: Ephrin type-A receptor 8 (Homo sapiens) (UniProt P29322); conditions: Compound concentration 1000.0 nM
[9] = target: Rhodopsin kinase GRK1 (Homo sapiens) (UniProt Q15835); conditions: Compound concentration 1000.0 nM
Sequence of Rhodopsin kinase GRK1 (Homo sapiens) (Q15835 whole entry): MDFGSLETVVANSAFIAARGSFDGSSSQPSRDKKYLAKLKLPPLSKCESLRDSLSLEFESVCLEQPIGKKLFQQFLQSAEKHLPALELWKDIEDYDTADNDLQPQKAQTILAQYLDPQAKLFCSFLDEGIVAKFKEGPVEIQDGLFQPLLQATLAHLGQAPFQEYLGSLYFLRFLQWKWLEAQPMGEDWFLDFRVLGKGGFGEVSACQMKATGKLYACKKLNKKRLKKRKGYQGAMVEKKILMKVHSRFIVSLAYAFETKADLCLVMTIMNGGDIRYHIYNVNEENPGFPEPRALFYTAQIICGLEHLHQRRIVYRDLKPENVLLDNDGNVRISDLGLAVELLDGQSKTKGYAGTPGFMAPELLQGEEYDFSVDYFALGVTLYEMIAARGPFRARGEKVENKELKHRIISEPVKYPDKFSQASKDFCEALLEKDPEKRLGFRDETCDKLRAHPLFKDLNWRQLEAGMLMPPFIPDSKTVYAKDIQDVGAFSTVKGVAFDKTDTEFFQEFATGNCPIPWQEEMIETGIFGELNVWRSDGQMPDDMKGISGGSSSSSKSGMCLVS

[10] = target: Serine/threonine-protein kinase 36 (Homo sapiens) (UniProt Q9NRP7); conditions: Compound concentration 1000.0 nM
[11] = target: Tyrosine-protein kinase SYK (Homo sapiens) (UniProt P43405); conditions: Compound concentration 1000.0 nM
[12] = target: Cyclin-dependent kinase 9 (Homo sapiens) (UniProt P50750); conditions: Compound concentration 1000.0 nM
[13] = target: 5-hydroxytryptamine receptor 1B (Homo sapiens) (UniProt P28222); conditions: Compound concentration 10.0 uM
[14] = target: Bone morphogenetic protein receptor type-1B (Homo sapiens) (UniProt O00238); conditions: Compound concentration 1000.0 nM
[15] = target: Serine/threonine-protein kinase Chk2 (Homo sapiens) (UniProt O96017); conditions: Compound concentration 1000.0 nM
[16] = target: Serine/threonine-protein kinase PRP4 homolog (Homo sapiens) (UniProt Q13523); conditions: Compound concentration 1000.0 nM
[17] = target: Interleukin-1 receptor-associated kinase 4 (Homo sapiens) (UniProt Q9NWZ3); conditions: Compound concentration 1000.0 nM
[18] = target: Bone morphogenetic protein receptor type-2 (Homo sapiens) (UniProt Q13873); conditions: Compound concentration 1000.0 nM
[19] = target: Cytoplasmic tyrosine-protein kinase BMX (Homo sapiens) (UniProt P51813); conditions: Compound concentration 1000.0 nM
Sequence of Cytoplasmic tyrosine-protein kinase BMX (Homo sapiens) (P51813 whole entry): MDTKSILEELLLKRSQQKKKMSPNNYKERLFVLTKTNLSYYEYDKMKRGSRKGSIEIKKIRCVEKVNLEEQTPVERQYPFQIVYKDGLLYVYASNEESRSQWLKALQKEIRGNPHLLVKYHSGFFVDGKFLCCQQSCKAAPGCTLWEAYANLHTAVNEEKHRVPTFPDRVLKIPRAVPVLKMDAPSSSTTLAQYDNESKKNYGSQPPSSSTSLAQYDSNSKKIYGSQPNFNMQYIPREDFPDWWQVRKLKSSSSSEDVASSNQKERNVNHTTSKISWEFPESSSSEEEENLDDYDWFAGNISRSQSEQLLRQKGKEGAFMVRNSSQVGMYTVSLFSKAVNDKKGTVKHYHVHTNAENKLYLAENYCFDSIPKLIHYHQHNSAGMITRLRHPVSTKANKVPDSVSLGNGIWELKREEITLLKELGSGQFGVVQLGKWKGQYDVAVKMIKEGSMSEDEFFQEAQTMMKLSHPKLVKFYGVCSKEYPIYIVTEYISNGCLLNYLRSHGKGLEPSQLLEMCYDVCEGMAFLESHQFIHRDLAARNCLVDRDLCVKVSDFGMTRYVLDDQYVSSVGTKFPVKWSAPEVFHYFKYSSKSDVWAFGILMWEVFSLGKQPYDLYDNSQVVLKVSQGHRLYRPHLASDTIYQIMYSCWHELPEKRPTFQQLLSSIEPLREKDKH

[20] = target: Serine/threonine-protein kinase Nek1 (Homo sapiens) (UniProt Q96PY6); conditions: Compound concentration 1000.0 nM
[21] = target: Serine/threonine-protein kinase D3 (Homo sapiens) (UniProt O94806); conditions: Compound concentration 1000.0 nM
[22] = target: Alpha-2B adrenergic receptor (Homo sapiens) (UniProt P18089); conditions: Compound concentration 10.0 uM
[23] = target: Serine/threonine-protein kinase Nek11 (Homo sapiens) (UniProt Q8NG66); conditions: Compound concentration 1000.0 nM
Sequence of Serine/threonine-protein kinase Nek11 (Homo sapiens) (Q8NG66 whole entry): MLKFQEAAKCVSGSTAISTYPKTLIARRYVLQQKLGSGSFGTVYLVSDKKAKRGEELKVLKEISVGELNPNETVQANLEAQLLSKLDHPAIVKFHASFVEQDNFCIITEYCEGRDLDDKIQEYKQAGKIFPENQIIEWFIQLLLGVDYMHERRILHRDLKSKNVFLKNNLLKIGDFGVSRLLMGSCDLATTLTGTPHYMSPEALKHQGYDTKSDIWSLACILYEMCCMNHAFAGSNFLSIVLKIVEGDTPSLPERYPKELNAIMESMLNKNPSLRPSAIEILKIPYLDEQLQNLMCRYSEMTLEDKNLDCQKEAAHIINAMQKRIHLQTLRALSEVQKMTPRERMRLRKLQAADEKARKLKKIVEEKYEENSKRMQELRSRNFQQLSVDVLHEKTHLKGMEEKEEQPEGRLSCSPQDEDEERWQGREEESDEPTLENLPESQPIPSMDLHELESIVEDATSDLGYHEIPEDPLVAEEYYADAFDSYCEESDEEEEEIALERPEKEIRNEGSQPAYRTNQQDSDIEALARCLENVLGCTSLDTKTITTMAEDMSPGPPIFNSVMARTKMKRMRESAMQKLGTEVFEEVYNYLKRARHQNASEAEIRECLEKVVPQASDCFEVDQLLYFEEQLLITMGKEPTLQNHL

[24] = target: Receptor-type tyrosine-protein kinase FLT3 (Homo sapiens) (UniProt P36888); conditions: Compound concentration 1000.0 nM
[25] = target: Interferon-induced, double-stranded RNA-activated protein kinase (Homo sapiens) (UniProt P19525); conditions: Compound concentration 1000.0 nM
[26] = target: Serine/threonine-protein kinase 10 (Homo sapiens) (UniProt O94804); conditions: Compound concentration 1000.0 nM
[27] = target: Dual specificity mitogen-activated protein kinase kinase 3 (Homo sapiens) (UniProt P46734); conditions: Compound concentration 1000.0 nM
[28] = target: Casein kinase II subunit alpha' (Homo sapiens) (UniProt P19784); conditions: Compound concentration 1000.0 nM
[29] = target: Transient receptor potential cation channel subfamily M member 6 (Homo sapiens) (UniProt Q9BX84); conditions: Compound concentration 1000.0 nM
[30] = tested on: Tyrosine-protein kinase ABL1 (Homo sapiens), P00519 [F317L]; conditions: Compound concentration 1000.0 nM
Sequence of Tyrosine-protein kinase ABL1 (Homo sapiens), P00519 [F317L] (P00519 whole entry F317L): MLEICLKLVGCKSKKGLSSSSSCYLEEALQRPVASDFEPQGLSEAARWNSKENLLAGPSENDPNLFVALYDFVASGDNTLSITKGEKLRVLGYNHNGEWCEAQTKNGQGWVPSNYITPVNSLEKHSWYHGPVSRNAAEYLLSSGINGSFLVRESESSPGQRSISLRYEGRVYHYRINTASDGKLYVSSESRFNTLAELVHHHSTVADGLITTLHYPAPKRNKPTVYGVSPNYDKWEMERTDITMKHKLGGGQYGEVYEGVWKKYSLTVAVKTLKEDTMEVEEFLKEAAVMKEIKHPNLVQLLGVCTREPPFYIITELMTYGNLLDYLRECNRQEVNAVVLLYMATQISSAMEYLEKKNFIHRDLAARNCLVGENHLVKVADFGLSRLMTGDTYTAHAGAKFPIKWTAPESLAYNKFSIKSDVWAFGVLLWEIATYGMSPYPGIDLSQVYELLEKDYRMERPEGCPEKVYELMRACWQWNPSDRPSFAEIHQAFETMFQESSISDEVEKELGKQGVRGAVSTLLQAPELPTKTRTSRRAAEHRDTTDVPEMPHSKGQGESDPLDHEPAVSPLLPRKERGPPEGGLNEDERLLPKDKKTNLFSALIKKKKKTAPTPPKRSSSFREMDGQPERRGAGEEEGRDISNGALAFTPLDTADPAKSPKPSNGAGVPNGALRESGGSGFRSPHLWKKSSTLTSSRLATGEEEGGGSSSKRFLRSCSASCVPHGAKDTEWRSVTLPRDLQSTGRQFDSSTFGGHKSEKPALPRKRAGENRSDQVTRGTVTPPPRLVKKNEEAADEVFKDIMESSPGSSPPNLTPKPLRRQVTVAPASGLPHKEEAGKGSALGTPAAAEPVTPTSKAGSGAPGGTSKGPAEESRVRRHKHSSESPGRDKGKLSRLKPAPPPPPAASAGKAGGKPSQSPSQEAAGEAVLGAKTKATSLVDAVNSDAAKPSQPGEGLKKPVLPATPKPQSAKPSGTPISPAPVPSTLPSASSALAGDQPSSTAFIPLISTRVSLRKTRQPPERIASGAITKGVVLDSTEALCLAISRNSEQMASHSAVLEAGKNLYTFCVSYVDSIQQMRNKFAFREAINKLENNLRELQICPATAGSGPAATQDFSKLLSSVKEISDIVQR

[31] = target: Ephrin type-A receptor 6 (Homo sapiens) (UniProt Q9UF33); conditions: Compound concentration 1000.0 nM
[32] = target: Non-receptor tyrosine-protein kinase TYK2 (Homo sapiens) (UniProt P29597); conditions: Compound concentration 1000.0 nM
[33] = tested on: Tyrosine-protein kinase ABL1 (Homo sapiens), P00519 [F317L]; conditions: Compound concentration 1000.0 nM; remark: listed apart in the source
[34] = target: Serine/threonine-protein kinase PAK 1 (Homo sapiens) (UniProt Q13153); conditions: Compound concentration 1000.0 nM
[35] = target: Platelet-derived growth factor receptor alpha (Homo sapiens) (UniProt P16234); conditions: Compound concentration 1000.0 nM
[36] = target: Serine/threonine-protein kinase MRCK beta (Homo sapiens) (UniProt Q9Y5S2); conditions: Compound concentration 1000.0 nM
[37] = target: Phosphatidylinositol 4-phosphate 5-kinase type-1 alpha (Homo sapiens) (UniProt Q99755); conditions: Compound concentration 1000.0 nM
[38] = tested on: Hepatocyte growth factor receptor (Homo sapiens), P08581 [M1250T]; conditions: Compound concentration 1000.0 nM
[39] = tested on: Mast/stem cell growth factor receptor Kit (Homo sapiens), P10721 [A829P]; conditions: Compound concentration 1000.0 nM
Sequence of Mast/stem cell growth factor receptor Kit (Homo sapiens), P10721 [A829P] (P10721 whole entry A829P): as the sequence (P10721 whole entry) above, with A829P counted along it

[40] = target: Death-associated protein kinase 1 (Homo sapiens) (UniProt P53355); conditions: Compound concentration 1000.0 nM
[41] = target: NT-3 growth factor receptor (Homo sapiens) (UniProt Q16288); conditions: Compound concentration 1000.0 nM
[42] = target: Tyrosine-protein kinase CSK (Homo sapiens) (UniProt P41240); conditions: Compound concentration 1000.0 nM
[43] = tested on: Receptor-type tyrosine-protein kinase FLT3 (Homo sapiens), P36888 [D835H]; conditions: Compound concentration 1000.0 nM
[44] = target: Platelet-derived growth factor receptor beta (Homo sapiens) (UniProt P09619); conditions: Compound concentration 1000.0 nM
[45] = target: Receptor tyrosine-protein kinase erbB-4 (Homo sapiens) (UniProt Q15303); conditions: Compound concentration 1000.0 nM

Sequence of Ephrin type-A receptor 4 (Homo sapiens) (P54764 whole entry): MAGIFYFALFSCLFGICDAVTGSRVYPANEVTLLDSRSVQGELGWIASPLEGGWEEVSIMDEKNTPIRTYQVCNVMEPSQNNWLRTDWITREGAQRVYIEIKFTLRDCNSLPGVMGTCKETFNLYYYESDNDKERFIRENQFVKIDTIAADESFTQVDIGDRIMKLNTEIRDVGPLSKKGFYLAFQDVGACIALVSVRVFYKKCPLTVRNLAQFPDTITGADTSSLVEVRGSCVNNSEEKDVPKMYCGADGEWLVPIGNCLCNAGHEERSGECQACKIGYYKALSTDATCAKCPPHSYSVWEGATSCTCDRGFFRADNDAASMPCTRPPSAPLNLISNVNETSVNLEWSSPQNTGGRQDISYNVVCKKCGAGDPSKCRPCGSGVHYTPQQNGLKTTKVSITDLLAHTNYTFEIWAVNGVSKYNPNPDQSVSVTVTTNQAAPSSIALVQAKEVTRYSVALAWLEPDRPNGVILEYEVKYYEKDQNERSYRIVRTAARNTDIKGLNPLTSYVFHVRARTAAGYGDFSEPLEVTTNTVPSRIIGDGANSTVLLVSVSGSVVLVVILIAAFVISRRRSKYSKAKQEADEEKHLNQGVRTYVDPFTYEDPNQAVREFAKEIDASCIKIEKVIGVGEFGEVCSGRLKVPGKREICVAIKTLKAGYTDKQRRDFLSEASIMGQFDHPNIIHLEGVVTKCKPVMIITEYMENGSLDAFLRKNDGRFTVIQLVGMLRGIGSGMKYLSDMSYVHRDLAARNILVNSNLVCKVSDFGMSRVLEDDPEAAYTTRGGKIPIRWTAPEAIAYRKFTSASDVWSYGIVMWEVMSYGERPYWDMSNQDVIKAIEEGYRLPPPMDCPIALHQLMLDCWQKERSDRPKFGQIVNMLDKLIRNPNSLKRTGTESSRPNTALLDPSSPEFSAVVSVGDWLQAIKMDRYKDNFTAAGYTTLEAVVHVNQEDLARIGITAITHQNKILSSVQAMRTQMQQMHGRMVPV

Cc1c(NC(=O)c2cc(C(N)=O)nc3cc(F)ccc23)c(C(F)(F)F)nn1Cc1ccc(C(C)(C)C)cc1 [BAY-588]
inactive: residual activity [1] 100% | residual activity [2] 100% | residual activity [3] 80% | residual activity [4] 96% | inhibition [5] 37.2% | residual activity [6] 100% | residual activity [7] 99% | residual activity [8] 100% | residual activity [9] 83% | residual activity [10] 97% | residual activity [11] 90% | residual activity [12] 100% | inhibition [13] -7.67% | residual activity [14] 82% | residual activity [15] 99% | residual activity [16] 73% | residual activity [17] 100% | residual activity [18] 100% | residual activity [19] 88% | residual activity [20] 97% | residual activity [21] 100% | inhibition [22] 15.6% | residual activity [23] 100% | residual activity [24] 100% | residual activity [25] 100% | residual activity [26] 88% | residual activity [27] 90% | residual activity [28] 100% | residual activity [29] 100% | residual activity [30] 100% | residual activity [31] 100% | residual activity [32] 100% | residual activity [33] 98% | residual activity [34] 98% | residual activity [35] 100% | residual activity [36] 96% | residual activity [37] 100% | residual activity [38] 88% | residual activity [39] 98% | residual activity [40] 100% | residual activity [41] 100% | residual activity [42] 94% | residual activity [43] 79% | residual activity [44] 76% | residual activity [45] 98%

Cc1c(NC(=O)c2cc(C(N)=O)nc3cc(F)ccc23)c(C(F)(F)F)nn1Cc1ccc(C#N)cc1 [BAY-876]
inactive: residual activity [1] 100% | residual activity [2] 99% | residual activity [3] 76% | residual activity [4] 80% | inhibition [5] 28.2% | residual activity [6] 69% | residual activity [7] 95% | residual activity [8] 91% | residual activity [9] 87% | residual activity [10] 100% | residual activity [11] 95% | residual activity [12] 86% | inhibition [13] 2.6% | residual activity [14] 77% | residual activity [15] 73% | residual activity [16] 93% | residual activity [17] 84% | residual activity [18] 89% | residual activity [19] 85% | residual activity [20] 95% | residual activity [21] 74% | inhibition [22] 7.66% | residual activity [23] 100% | residual activity [24] 83% | residual activity [25] 100% | residual activity [26] 79% | residual activity [27] 88% | residual activity [28] 100% | residual activity [29] 87% | residual activity [30] 88% | residual activity [31] 87% | residual activity [32] 77% | residual activity [33] 81% | residual activity [34] 100% | residual activity [35] 73% | residual activity [36] 100% | residual activity [37] 100% | residual activity [38] 91% | residual activity [39] 64% | residual activity [40] 86% | residual activity [41] 69% | residual activity [42] 100% | residual activity [43] 100% | residual activity [44] 87% | residual activity [45] 95%

Reference: ChEMBL document CHEMBL4507267 (2021)
